From patent publication US20250312462A1, “PAK1 DEGRADERS AND METHODS OF USE THEREOF” (INSTITUTE FOR CANCER RESEARCH D/B/A THE RESEARCH INSTITUTE …, priority 2022, published 2025)

How the values were obtained:
Test in all cases: KINOMEscan
PKNB(M. tuberculosis) = biological target: T1, PKNB(M. tuberculosis) (Mycobacterium tuberculosis, UniProt P9WI81); type: binding; settings: read-out: Percent Control
T1 construct: purchased DiscoverX

CAMKK2 = CAMKK2 (Homo sapiens, UniProt Q96RR4); settings: read-out: Percent Control
Procedure: (§1) The kinase engagement assay (KINOMEscan®) was performed by DiscoverX assessing binding abilities toward a set of kinases.

DAPK1 = DAPK1 (Homo sapiens, UniProt P53355); settings: read-out: Percent Control
Procedure: as §1

CDC2L1 = CDC2L1 (Homo sapiens, UniProt P21127); settings: read-out: Percent Control
Procedure: as §1

CLK1 = CLK1 (Homo sapiens, UniProt P49759); settings: read-out: Percent Control
Procedure: as §1

MET(M1250T) = MET(M1250T) (Homo sapiens, UniProt P08581, M1250T); settings: read-out: Percent Control
Procedure: as §1

ADCK4 = ADCK4 (Homo sapiens, UniProt Q96D53); settings: read-out: Percent Control
Procedure: as §1

ERK8 = ERK8 (Homo sapiens, UniProt Q8TD08); settings: read-out: Percent Control
Procedure: as §1

FRK = FRK (Homo sapiens, UniProt P42685); settings: read-out: Percent Control
Procedure: as §1

RIPK2 = RIPK2 (Homo sapiens, UniProt O43353); settings: read-out: Percent Control
Procedure: as §1

YANK3 = YANK3 (Homo sapiens, UniProt Q86UX6); settings: read-out: Percent Control
Procedure: as §1

BLK = BLK (Homo sapiens, UniProt P51451); settings: read-out: Percent Control
Procedure: as §1

CDK3 = CDK3 (Homo sapiens, UniProt Q00526); settings: read-out: Percent Control
Procedure: as §1

EPHB2 = EPHB2 (Homo sapiens, UniProt P29323); settings: read-out: Percent Control
Procedure: as §1

PAK4 = PAK4 (Homo sapiens, UniProt O96013); settings: read-out: Percent Control
Procedure: as §1

CDKL2 = CDKL2 (Homo sapiens, UniProt Q92772); settings: read-out: Percent Control
Procedure: as §1

PIM3 = PIM3 (Homo sapiens, UniProt Q86V86); settings: read-out: Percent Control
Procedure: as §1

YES = YES (Homo sapiens, UniProt P07947); settings: read-out: Percent Control
Procedure: as §1

LRRK2 = LRRK2 (Homo sapiens, UniProt Q5S007); settings: read-out: Percent Control
Procedure: as §1

[1] = biological target: EGFR(L747-S752del, P753S) (Homo sapiens, UniProt P00533, DEL747-752/P753S); settings: read-out: Percent Control
Procedure: as §1

EGFR(G719C) = EGFR(G719C) (Homo sapiens, UniProt P00533, G719C); settings: read-out: Percent Control
Procedure: as §1

CDC2L2 = CDC2L2 (Homo sapiens, UniProt Q9UQ88); settings: read-out: Percent Control
Procedure: as §1

PYK2 = PYK2 (Homo sapiens, UniProt Q14289); settings: read-out: Percent Control
Procedure: as §1

CDK4 = CDK4 (Homo sapiens, UniProt P11802); settings: read-out: Percent Control
Procedure: as §1

FES = FES (Homo sapiens, UniProt P07332); settings: read-out: Percent Control
Procedure: as §1

FLT3(ITD) = settings: 10 μM
Procedure: as §1

LCK = LCK (Homo sapiens, UniProt P06239); settings: read-out: Percent Control
Procedure: as §1

PIK3CA(E542K) = PIK3CA(E542K) (Homo sapiens, UniProt P42336, E542K); settings: read-out: Percent Control
Procedure: as §1

[2] = biological target: TYK2(JH1domain-catalytic) (Homo sapiens, UniProt P29597); settings: read-out: Percent Control
Procedure: as §1

TAOK2 = TAOK2 (Homo sapiens, UniProt Q9UL54); settings: read-out: Percent Control
Procedure: as §1

[3] = biological target: TYK2(JH2domain-pseudokinase) (Homo sapiens, UniProt P29597); settings: read-out: Percent Control
Procedure: as §1

ABL1-phosphorylated = ABL1-phosphorylated (Homo sapiens, UniProt P00519); settings: read-out: Percent Control
Procedure: as §1

AMPK-alpha2 = AMPK-alpha2 (Homo sapiens, UniProt P54646); settings: read-out: Percent Control
Procedure: as §1

IKK-epsilon = IKK-epsilon (Homo sapiens, UniProt Q14164); settings: read-out: Percent Control
Procedure: as §1

IRAK1 = IRAK1 (Homo sapiens, UniProt P51617); settings: read-out: Percent Control
Procedure: as §1

MEK1 = MEK1 (Homo sapiens, UniProt Q02750); settings: read-out: Percent Control
Procedure: as §1

PIK3CA(E545A) = PIK3CA(E545A) (Homo sapiens, UniProt P42336, E545A); settings: read-out: Percent Control
Procedure: as §1

ROCK2 = ROCK2 (Homo sapiens, UniProt O75116); settings: read-out: Percent Control
Procedure: as §1

Sequence of ADCK4 (Q96D53 whole entry): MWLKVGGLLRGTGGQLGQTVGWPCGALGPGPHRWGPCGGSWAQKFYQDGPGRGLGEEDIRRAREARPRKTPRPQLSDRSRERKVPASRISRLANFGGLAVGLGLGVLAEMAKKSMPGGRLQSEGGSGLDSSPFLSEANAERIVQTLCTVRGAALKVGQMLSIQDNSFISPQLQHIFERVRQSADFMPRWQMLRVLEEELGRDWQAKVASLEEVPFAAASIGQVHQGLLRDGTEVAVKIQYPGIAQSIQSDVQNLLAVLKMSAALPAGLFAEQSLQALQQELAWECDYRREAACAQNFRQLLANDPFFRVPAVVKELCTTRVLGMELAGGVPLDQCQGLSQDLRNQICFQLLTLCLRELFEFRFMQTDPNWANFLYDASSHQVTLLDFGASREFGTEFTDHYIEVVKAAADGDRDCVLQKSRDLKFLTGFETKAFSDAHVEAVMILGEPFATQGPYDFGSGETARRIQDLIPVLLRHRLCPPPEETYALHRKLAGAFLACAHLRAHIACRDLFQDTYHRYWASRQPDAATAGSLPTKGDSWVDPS
Sequence of MET(M1250T) (P08581 25-1390 M1250T): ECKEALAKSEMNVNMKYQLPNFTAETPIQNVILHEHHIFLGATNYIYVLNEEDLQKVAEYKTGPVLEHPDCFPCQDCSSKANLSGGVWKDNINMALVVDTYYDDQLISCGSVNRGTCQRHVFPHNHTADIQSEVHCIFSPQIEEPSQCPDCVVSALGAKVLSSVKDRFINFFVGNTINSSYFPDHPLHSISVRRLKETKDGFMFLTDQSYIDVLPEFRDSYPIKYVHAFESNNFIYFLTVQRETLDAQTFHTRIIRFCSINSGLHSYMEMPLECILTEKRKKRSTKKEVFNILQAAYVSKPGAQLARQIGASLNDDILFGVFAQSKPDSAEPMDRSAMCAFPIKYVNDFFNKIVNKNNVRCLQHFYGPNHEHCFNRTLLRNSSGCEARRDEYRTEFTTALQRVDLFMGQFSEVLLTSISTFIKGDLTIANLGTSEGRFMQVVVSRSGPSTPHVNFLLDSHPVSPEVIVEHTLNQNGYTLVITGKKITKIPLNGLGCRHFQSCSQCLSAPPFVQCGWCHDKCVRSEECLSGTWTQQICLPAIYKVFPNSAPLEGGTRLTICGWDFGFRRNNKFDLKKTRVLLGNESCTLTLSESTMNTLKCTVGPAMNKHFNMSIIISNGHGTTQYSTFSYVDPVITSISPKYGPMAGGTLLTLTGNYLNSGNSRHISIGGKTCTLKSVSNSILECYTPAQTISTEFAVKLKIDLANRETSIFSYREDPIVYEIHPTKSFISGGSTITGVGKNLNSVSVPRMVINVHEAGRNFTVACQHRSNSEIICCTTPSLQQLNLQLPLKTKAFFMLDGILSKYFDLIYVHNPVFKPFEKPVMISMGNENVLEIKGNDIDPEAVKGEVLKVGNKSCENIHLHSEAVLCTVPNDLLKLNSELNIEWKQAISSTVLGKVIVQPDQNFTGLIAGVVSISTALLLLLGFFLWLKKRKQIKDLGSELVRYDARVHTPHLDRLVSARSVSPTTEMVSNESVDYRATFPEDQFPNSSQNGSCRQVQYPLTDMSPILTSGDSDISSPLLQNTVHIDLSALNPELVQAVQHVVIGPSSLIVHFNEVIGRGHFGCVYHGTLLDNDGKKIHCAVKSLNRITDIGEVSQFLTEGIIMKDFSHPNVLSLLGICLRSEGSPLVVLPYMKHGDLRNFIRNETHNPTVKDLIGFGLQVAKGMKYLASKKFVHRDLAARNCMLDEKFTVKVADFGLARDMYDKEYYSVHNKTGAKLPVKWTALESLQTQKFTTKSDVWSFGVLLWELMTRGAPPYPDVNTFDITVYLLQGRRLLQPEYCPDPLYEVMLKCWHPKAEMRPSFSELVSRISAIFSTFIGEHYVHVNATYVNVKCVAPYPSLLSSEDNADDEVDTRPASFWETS
Sequence of AMPK-alpha2 (P54646 whole entry): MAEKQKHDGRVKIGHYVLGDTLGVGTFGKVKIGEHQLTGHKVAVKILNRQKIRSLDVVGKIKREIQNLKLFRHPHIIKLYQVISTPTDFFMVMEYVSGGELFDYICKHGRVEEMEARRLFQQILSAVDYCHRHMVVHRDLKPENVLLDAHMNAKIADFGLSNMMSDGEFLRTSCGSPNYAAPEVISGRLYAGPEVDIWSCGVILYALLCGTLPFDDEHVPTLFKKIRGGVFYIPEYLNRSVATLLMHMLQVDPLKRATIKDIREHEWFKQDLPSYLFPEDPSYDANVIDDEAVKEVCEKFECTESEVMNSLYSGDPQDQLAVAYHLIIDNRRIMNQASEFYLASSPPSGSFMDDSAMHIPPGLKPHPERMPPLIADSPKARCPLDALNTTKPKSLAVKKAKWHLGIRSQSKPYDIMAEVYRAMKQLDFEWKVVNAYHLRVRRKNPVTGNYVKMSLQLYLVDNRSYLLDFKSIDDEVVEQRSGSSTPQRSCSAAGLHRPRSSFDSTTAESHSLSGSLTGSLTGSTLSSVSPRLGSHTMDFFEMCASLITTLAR
Sequence of LRRK2 (Q5S007 whole entry): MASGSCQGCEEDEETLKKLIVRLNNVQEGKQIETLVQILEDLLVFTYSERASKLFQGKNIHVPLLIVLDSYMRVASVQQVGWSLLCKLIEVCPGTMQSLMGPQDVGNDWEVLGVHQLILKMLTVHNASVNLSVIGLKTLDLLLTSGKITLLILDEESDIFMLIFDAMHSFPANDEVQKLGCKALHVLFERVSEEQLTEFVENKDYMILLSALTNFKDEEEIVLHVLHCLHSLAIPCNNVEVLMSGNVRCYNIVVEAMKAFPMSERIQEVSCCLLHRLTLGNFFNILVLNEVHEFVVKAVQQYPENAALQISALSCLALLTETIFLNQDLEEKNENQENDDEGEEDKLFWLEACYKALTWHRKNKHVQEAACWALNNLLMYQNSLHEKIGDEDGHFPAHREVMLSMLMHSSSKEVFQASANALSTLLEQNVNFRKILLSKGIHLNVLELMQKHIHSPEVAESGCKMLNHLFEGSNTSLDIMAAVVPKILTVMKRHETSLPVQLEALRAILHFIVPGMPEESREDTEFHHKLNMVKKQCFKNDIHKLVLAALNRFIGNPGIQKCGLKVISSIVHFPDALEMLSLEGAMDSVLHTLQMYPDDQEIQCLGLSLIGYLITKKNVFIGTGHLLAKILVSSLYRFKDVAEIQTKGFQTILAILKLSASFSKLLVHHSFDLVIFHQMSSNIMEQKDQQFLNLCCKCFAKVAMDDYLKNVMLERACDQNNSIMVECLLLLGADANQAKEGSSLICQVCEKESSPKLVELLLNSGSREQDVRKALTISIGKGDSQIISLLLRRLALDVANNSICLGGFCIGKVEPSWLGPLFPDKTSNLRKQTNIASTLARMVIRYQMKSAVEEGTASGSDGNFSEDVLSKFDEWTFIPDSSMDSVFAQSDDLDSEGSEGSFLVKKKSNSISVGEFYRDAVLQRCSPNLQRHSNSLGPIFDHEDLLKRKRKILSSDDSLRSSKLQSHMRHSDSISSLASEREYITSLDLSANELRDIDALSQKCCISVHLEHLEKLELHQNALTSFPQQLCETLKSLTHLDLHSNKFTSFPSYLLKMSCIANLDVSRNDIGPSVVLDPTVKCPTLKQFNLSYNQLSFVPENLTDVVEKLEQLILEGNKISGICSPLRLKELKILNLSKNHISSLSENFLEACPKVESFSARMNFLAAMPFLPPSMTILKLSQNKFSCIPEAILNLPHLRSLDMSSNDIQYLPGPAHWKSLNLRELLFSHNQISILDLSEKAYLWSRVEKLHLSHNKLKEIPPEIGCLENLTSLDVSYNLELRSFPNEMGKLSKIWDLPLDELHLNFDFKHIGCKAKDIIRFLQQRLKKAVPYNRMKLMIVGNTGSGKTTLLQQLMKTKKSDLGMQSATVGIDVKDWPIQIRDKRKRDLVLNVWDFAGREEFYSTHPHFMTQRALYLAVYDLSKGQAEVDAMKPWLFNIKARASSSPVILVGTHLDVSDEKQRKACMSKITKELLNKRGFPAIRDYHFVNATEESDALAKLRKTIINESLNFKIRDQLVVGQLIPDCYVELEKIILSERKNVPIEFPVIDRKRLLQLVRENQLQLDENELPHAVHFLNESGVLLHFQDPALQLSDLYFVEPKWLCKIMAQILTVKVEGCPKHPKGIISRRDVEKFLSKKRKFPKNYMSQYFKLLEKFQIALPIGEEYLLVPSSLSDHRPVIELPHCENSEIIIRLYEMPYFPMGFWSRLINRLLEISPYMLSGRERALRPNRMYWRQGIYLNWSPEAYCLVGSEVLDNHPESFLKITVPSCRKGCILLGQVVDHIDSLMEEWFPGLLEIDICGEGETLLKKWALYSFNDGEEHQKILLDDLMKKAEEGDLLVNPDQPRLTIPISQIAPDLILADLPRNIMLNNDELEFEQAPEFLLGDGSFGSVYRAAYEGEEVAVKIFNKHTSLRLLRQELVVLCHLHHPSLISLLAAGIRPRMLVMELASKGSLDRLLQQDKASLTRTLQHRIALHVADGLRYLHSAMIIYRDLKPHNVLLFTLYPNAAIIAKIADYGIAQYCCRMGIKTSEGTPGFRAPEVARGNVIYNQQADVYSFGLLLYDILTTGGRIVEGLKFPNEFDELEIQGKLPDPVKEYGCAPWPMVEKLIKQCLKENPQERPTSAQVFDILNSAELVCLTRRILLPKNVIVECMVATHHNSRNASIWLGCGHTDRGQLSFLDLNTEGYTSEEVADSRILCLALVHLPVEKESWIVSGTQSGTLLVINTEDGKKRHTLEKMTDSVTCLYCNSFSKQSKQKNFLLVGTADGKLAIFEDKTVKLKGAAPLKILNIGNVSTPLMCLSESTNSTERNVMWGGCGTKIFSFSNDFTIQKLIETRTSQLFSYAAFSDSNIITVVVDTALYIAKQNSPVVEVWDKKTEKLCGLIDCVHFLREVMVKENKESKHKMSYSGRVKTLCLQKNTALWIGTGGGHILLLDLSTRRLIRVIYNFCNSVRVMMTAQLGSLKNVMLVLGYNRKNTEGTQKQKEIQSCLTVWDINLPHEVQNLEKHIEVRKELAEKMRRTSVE

O=C1CCC(N2C(=O)c3cccc(NCCCCCCCCNC(=O)N4CC[C@H](NC5=Nc6cc(F)ccc6N(CC(F)F)c6ccc(Cl)cc65)C4)c3C2=O)C(=O)N1 (stereo partly drawn) [BJG-05-039, (3S)-3-((2-Chloro-5-(2,2-difluoroethyl)-8-fluoro-5H-dibenzo[b,e][1,4]diazepin-11-yl)amino)-N-(8-((2-(2,6-dioxopiperidin-3-yl)-1,3-dioxoisoindolin-4-yl)amino)octyl)pyrrolidine-1-carboxamide]
remaining binding at 10 µM (PKNB(M. tuberculosis)): 72% | remaining binding at 10 µM (CAMKK2): 46% | remaining binding at 10 µM (DAPK1): 47% | remaining binding at 10 µM (CDC2L1): 53% | remaining binding at 10 µM (CLK1): 57% | remaining binding at 10 µM (MET(M1250T)): 61% | remaining binding at 10 µM (ADCK4): 63% | remaining binding at 10 µM (ERK8): 63% | remaining binding at 10 µM (FRK): 67% | remaining binding at 10 µM (RIPK2): 67% | remaining binding at 10 µM (YANK3): 72% | remaining binding at 10 µM (BLK): 73% | remaining binding at 10 µM (CDK3): 74% | remaining binding at 10 µM (EPHB2): 74% | remaining binding at 10 µM (PAK4): 75% | remaining binding at 10 µM (CDKL2): 77% | remaining binding at 10 µM (PIM3): 78% | remaining binding at 10 µM (YES): 79% | remaining binding at 10 µM (LRRK2): 80% | remaining binding at 10 µM [1]: 82% | remaining binding at 10 µM (EGFR(G719C)): 83% | remaining binding at 10 µM (CDC2L2): 84% | remaining binding at 10 µM (PYK2): 85% | remaining binding at 10 µM (CDK4): 86% | remaining binding at 10 µM (FES): 86% | Percent Control (FLT3(ITD)): 87 | remaining binding at 10 µM (LCK): 91% | remaining binding at 10 µM (PIK3CA(E542K)): 91% | remaining binding at 10 µM [2]: 91% | remaining binding at 10 µM (TAOK2): 93% | remaining binding at 10 µM [3]: 97% | remaining binding at 10 µM (ABL1-phosphorylated): 100% | remaining binding at 10 µM (AMPK-alpha2): 100% | remaining binding at 10 µM (IKK-epsilon): 100% | remaining binding at 10 µM (IRAK1): 100% | remaining binding at 10 µM (MEK1): 100% | remaining binding at 10 µM (PIK3CA(E545A)): 100% | remaining binding at 10 µM (ROCK2): 100%
